Measurements from patent publication US5137900A, “Therapeutic virginiamycin M1 analogs” (Merck & Co., Inc., priority 1991, dated 1992).

What was measured:
Pancreatic CCK receptor = target: T1, Pancreatic CCK receptor (Rattus norvegicus, UniProt P30551); assay: Pancreatic cholecystokinin receptor binding assay (125I-CCK-8); conditions: rat pancreas membranes, 37° C., 30 minutes
T1 construct: Pancreatic receptor membranes were prepared; from tissue; host or cells: rat pancreas membranes
T1 sequence (P30551 1-444): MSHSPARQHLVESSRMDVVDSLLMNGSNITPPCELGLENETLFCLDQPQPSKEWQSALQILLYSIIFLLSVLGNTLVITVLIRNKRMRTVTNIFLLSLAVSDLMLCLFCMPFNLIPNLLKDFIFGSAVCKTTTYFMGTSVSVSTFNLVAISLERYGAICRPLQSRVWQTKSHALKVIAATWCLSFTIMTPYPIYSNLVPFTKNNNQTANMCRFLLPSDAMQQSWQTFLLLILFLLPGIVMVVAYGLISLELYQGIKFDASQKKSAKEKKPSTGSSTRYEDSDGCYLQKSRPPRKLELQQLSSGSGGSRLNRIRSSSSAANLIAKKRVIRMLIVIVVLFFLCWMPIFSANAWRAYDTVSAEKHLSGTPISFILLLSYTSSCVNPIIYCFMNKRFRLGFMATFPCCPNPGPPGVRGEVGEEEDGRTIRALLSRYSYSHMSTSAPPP
Experimental: Radiolabeled CCK-8 was purchased from New England Nuclear as ^125 I-CCK-8 Receptor binding was performed according to Innis and Snyder Proc. Natl. Acad. Sci., 77, 6917 (1980), with the minor modification of adding the additional protease inhibitors, phenylmethane sulfonyl fluoride (PMSF) and o-phenanthroline, which have no effect on the ^125 I-CCK receptor binding assay. All assays were performed in triplicate. Pancreatic receptor membranes were prepared by homogenzing a gram of fresh rat pancreas tissue in 30 ml TRIS-HCl (50 mM), pH 7.7 using a Brinkman polytron PT10 (Brinkman). The homogenate was washed twice and collected by centrifugation at 48,000×g at 4° C. for 10 minutes. The membranes were resuspended in assay buffer consisting of 5 mM dithiothieitol, 0.1 mM bacitiacin, 5 mM MgCl2.H2 O, 0.2% heat denatured BSA, 1.2 mM PMSF and 0.5 mM O-phenanthroline at a concentration of 100 ml per gram of pancreas. […] The reaction mixtures were mixed briefly and placed in a 37° C. water bath with gentle shaking for 30 minutes. The reaction mixtures were then diluted with 4 ml of ice-cold TRIS buffer, pH 7.7, containing 1 mg/ml bovine serum albumin and immediately filtered in Watman G F/B filters. The filters were washed with 3×4 ml of the same buffer and the radioactivity associated with the filters was counted in a Beckman Gamma 5500 counter. Broths were prepared by adding two volumes of acetone to original broth; supernatants were freeze dried after centrifugation at 1500 g for 10 minutes. The dried samples were then brought up in methanol/H2 O (1:1) and ready for assay.

gastric acid secretion = conditions: cited from earlier work
[1] = cited from earlier work

Molecule	IC50 (Pancreatic CCK receptor)	also measured
CC1=C\C=C\C(=O)Cc2nc(co2)C(=O)N2CCC=C2C(=O)O[C@H](C(C)C)[C@H](C)/C=C/C(=O)NC\C=C\1 [Compound III]	> 10 µM	
CC1=C\C=C\[C@H](O)Cc2nc(co2)C(=O)N2CCC=C2C(=O)O[C@H](C(C)C)[C@H](C)/C=C/C(=O)NC\C=C\1 [Compound II]	> 10 µM	
Gastrin-17		potency relative to Gastrin-13 (gastric acid secretion; more potent than Gastrin-13, gastric acid secretion): 2.5 times; potency relative to Gastrin-34 (gastric acid secretion; more potent than Gastrin-34, gastric acid secretion): 5 times
CC1=C\C=C\[C@@H](O)Cc2nc(co2)C(=O)N2CCC=C2C(=O)O[C@H](C(C)C)[C@H](C)/C=C/C(=O)NC\C=C\1 [Compound I]	> 10 µM	
C-terminal octapeptide: C-terminal octapeptide of CCK		efficacy relative to CCK-33 ([1]; compared with CCK-33): same efficacy; potency relative to CCK-33 ([1]; more potent than CCK-33): approximately ten
CC1=C\[C@@H](O)CC(=O)Cc2nc(co2)C(=O)N2CCC=C2C(=O)O[C@H](C(C)C)[C@H](C)/C=C/C(=O)NC\C=C\1 [Virginiamycin M1]	> 100 µM	
